Experimental findings from PubChem BioAssay (NCI) are described below.

Structures are written as SMILES.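 Growth conditions: 96-well plates. Treatment: test compound, 48 hours, 5 concentrations. Analysis: linear interpolation between bracketing concentrations; unreached endpoints set to highest concentration. GI50 marks 50% less growth. TGI: total growth inhibition.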

The subject of this assay is OVCAR-5 ovarian. Briefly: growth of human tumour cells (NCI), 48 h.

Take `C#CC[C@@H]1C[C@]2(C)[C@H]3CC[C@@H]4[C@H]5C(C(=C)C)CC[C@]5(C(=O)NCCCN5CCN(CCCN)CC5)CC[C@@]4(C)[C@]3(C)CC[C@H]2C(C)(C)[C@H]1OC(C)=O` (some centres not stated): the GI50 is 1580 nM and the TGI is 2950 nM.
